We go through 39 compounds from patent publication US4839374A, “4-((Bicyclic heterocyclyl)-methyl and -hetero)-piperidines” (Janssen Pharmaceutica, N.V., priority 1987, dated 1989).

Assay [1] relates to compound 48/80-induced lethality. Nature of the assay: Protection of rats from compound 48/80-induced lethality. In kind it is in vivo, rats of an inbred Wistar strain. The settings on record: Rattus norvegicus, 4 h, read-out: Compound 48/80 lethality test in rats ED50, s.c. or p.o. 1 h before compound 48/80 0.5 mg/kg i.v.; protection of 50% of animals, survival after 4 hours. The method in brief: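 Male inbred Wistar rats (240-260 g), starved overnight, dosed subcutaneously or orally with compound or 0.9% NaCl before compound 48/80 challenge. Survival at 4 hours counted as protection. ED50 in mg/kg is the dose protecting 50% of animals from lethality.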

Another assay relates to effects of serotonin. Nature of the assay: Antagonistic activity on the effects of serotonin in the gastric lesion test (lesions induced by compound 48/80). In kind it is in vivo, rats of a Wistar inbred strain. The settings on record: Rattus norvegicus, po; compound 48/80 1 mg/kg i.v.; distension and lesions of stomach completely absent in 50% of rats; read-out: gastric lesion test ED50. How it is done: Antagonistic activity on the effects of serotonin in the gastric lesion test.
The shock, followed by dead, can be avoided if the rats are pretreated with a classical H 1 antagonist.
Male rats of a Wistar inbred strain, weighing 220-250 g, were starved overnight, water being available ad libitum. The test compounds were administered orally as a solution or as a suspension in aqueous medium. A control rat and a "blank" rat received the test compound. One hour later 5-[4-(diphenylmethyl)1-piperazinylmethyl]-1-methyl-1H-benzimidazole-2-methanol was administered subcutaneously to all rats at the dose of 2.5 mg/kg. […] Four hours after the intravenous injection of compound 48/80, the rats were decapitated and the stomachs were removed. Subsequently the stomachs were inspected for distension and contents (blood, fluid, food) and thoroughly rinsed. The macroscopic lesions were scored from 0 to +++, 0 corresponding to complete absence of visible lesions and the highest score corresponding to reddish rough patches covering more than half the glandular area.
The second column of tables 1-4 show for a number of compounds of formula (I) the doses (in mg/kg body weight) at which the distension of the stomach as well as the lesions in the glandular area of the stomach are completely absent in 50% of the test rats (ED50 -value).

With `CC(C)NC(=O)CN1CCC(Cc2nc3cccnc3n2Cc2ccc(F)cc2)CC1` [Compound 128], the ED50 in assay [1] was 0.16 mg/kg; with effects of serotonin, 0.63 mg/kg.
In the same order, the values of `c1cnc(NCCN2CCC(Cc3nc4cccnc4n3Cc3cccs3)CC2)nc1` [Compound 342] are 0.02 mg/kg and 0.16 mg/kg.
`O=c1c2ccccc2[nH]c(=S)n1CCN1CCC(Cc2nc3ccccc3n2Cc2ccc(F)cc2)CC1` [Compound 460, 3-[2-[4-[[1-[(4-fluorophenyl)methyl]-1H-benzimidazol-2-yl]methyl]-1-piperidinyl]ethyl]-2,3-dihydro-2-thioxo-4(1H)-quinazolinone]: the values for the ED50 (in assay [1]; in the assay with effects of serotonin) were 0.08 mg/kg and 0.63 mg/kg, respectively.
Consider `Cc1nc2n(c(=O)c1CCN1CCC(Cc3nc4ccccc4n3Cc3cscn3)CC1)CCCC2` [Compound 262], for which the ED50 in assay [1] was 0.04 mg/kg; in the assay with effects of serotonin, 0.16 mg/kg.
As for `Cc1nc2ccccn2c(=O)c1CCN1CCC(Cc2nc3cccnc3n2Cc2ccco2)CC1` [Compound 180], the ED50 in assay [1] is 0.01 mg/kg; in the assay with effects of serotonin it was 0.31 mg/kg.
Consider `c1coc(Cn2c(CC3CCN(CCNc4nccs4)CC3)nc3ccccc32)c1` [Compound 335], for which the ED50 in assay [1] was determined as 0.02 mg/kg; with effects of serotonin it was 0.16 mg/kg.
In the same order, the values of `CCCC(=O)c1ccc(OC)c(C(=O)NCCN2CCC(Cc3nc4ccccc4n3Cc3ccc(F)cc3)CC2)c1` [Compound 441, N-[2-[4-[[1-[(4-fluorophenyl)methyl]-1H-benzimidazol-2-yl]methyl]-1-piperidinyl]ethyl]-2-methoxy-5-(1-oxobutyl)benzamide] are 0.08 mg/kg and 0.16 mg/kg.
Regarding `O=c1[nH]c2ccccc2c(=O)n1CCN1CCC(Cc2nc3ccccc3n2Cc2cscn2)CC1` [Compound 187], the ED50 amounted to 0.04 mg/kg in assay [1] and 0.31 mg/kg with effects of serotonin.
As to `Cn1cnc([N+](=O)[O-])c1N1CCC(N2CCC(Cc3nc4ccccc4n3Cc3ccc(F)cc3)CC2)CC1` [Compound 380, 4-[[1-[(4-fluorophenyl)methyl]-1H-benzimidazol-2-yl]methyl]-1'-(1-methyl-4-nitro-1H-imidazol-5-yl)-[1,4'-bipiperidine]], the ED50 is 0.31 mg/kg in assay [1] and 0.63 mg/kg with effects of serotonin.
Turning to `Fc1ccc(Cn2c(CC3CCN(CCc4ccccn4)CC3)nc3ccccc32)cc1` [Compound 103, 1-[(4-fluorophenyl)methyl]-2-[[1-[2-(2-pyridinyl)ethyl]-4-piperidinyl]-methyl]-1H-benzimidazole], the ED50 came to 0.005 mg/kg in assay [1] and 0.16 mg/kg in the assay on effects of serotonin.
With `CCn1nnnc1SCCN1CCC(Cc2nc3ccccc3n2Cc2ccc(F)cc2)CC1` [Compound 181], in assay [1], the ED50 is 0.04 mg/kg.
For `Cn1cnc([N+](=O)[O-])c1NCCN1CCC(Cc2nc3ccccc3n2Cc2ccc(F)cc2)CC1` [Compound 377, 4-[[1-[(4-fluorophenyl)methyl]-1H-benzimidazol-2-yl]methyl]-N-(1-methyl-4-nitro-1H-imidazol-5-yl)-1-piperidineethanamine], the ED50 in assay [1] was 0.16 mg/kg.
For `N#CCN1CCC(Cc2nc3ccccc3n2Cc2ccccc2)CC1` [Compound 297], the ED50 in assay [1] turned out to be 0.08 mg/kg.
As to `Cn1c(=O)n(CCN2CCC(Cc3nc4ccccc4n3Cc3ccco3)CC2)c(=O)c2ccccc21` [Compound 221], in assay [1], the ED50 is 0.04 mg/kg.
Turning to `Cn1cnc2c(NCCN3CCC(Cc4nc5ccccc5n4Cc4ccc(F)cc4)CC3)ncnc21` [Compound 369], the ED50 in assay [1] amounted to 0.04 mg/kg.
As to `O=c1[nH]c2ccccc2n1CCCN1CCC(Cc2nc3ccccc3n2Cc2ccco2)CC1` [Compound 139, 1-[3-[4-[[1-(2-furanylmethyl)-1H-benzimidazol-2-yl]methyl]-1-piperidinyl]propyl]-1,3-dihydro-2H-benzimidazol-2-one], in assay [1], the ED50 came to 0.08 mg/kg.
In the case of `Fc1ccc(Cn2c(CC3CCN(CCNc4cnccn4)CC3)nc3ccncc32)cc1` [Compound 373, N-[2-[4-[[3-[(4-fluorophenyl)methyl]-3H-imidazo[4,5-c]pyridin-2-yl]methyl]-1-piperidinyl]ethyl]-2-pyrazinamine], the ED50 in assay [1] was 0.08 mg/kg.
For `Cc1ccc(Cn2c(CC3CCNCC3)nc3ccccc32)cc1` [Compound 42, 1-[(4-methylphenyl)methyl]-2-(4-piperidinylmethyl)-1H-benzimidazole], the ED50 in assay [1] is 0.02 mg/kg.
Take `COc1ccc(Cn2c(CC3CCN(CCNc4nccs4)CC3)nc3cccnc32)cc1` [Compound 365]: the ED50 in assay [1] amounted to 0.08 mg/kg.
For `Fc1ccc(Cn2c(CC3CCN(CCSc4ccccc4)CC3)nc3ccccc32)cc1` [Compound 129], the ED50 in assay [1] was 0.16 mg/kg.
Consider `O=c1oc2ccccc2cc1CCN1CCC(Cc2nc3cccnc3n2Cc2ccco2)CC1` [Compound 174], for which the ED50 in assay [1] is 0.01 mg/kg.
For `Fc1ccc(Cn2c(CC3CCN(Cc4ccccc4)CC3)nc3cccnc32)cc1` [Compound 8, 3-[(4-fluorophenyl)methyl]-2-[[1-(phenylmethyl)-4-piperidinyl]-methyl]-3H-imidazo[4,5-b]pyridine], the ED50 in assay [1] was 0.04 mg/kg.
Regarding `S=C=NCCN1CCC(Cc2nc3cccnc3n2Cc2cccs2)CC1` [Compound 402], in assay [1], the ED50 is 0.04 mg/kg.
For the compound `COc1ccc(CCN2CCC(Cc3nc4ccccc4n3CCc3ccccc3)CC2)cc1` [Compound 516, 2-[[1-[2-(4-methoxyphenyl)ethyl]-4-piperidinyl]methyl]-1-(2-phenylethyl)-1H-benzimidazole], the ED50 in assay [1] turned out to be 0.16 mg/kg.
Consider `O=c1[nH]c2ccccc2c(=O)n1CCCN1CCC(Cc2nc3cccnc3n2Cc2ccco2)CC1` [Compound 169], for which the ED50 in assay [1] is 0.02 mg/kg.
Turning to `O=c1c2ccccc2[nH]c(=S)n1CCN1CCC(Cc2nc3cccnc3n2Cc2ccc(F)cc2)CC1` [Compound 463, 3-[2-[4-[[3-[(4-fluorophenyl)methyl]-3H-imidazo[4,5-b]pyridin-2-yl]methyl]-1-piperidinyl]ethyl]-2,3-dihydro-2-thioxo-4(1H)quinazolinone], the ED50 in assay [1] stood at 0.08 mg/kg.
For the compound `CCn1nnn(CCN2CCC(Cc3nc4ccccc4n3Cc3ccc(F)cc3)CC2)c1=O` [Compound 123], in assay [1], the ED50 was 0.01 mg/kg.
On the same count and under the same terms, next, `Fc1ccc(Cn2c(CC3CCN(CCNCc4ccccn4)CC3)nc3ccccc32)cc1` [Compound 427, N-[2-[4-[[1-[(4-fluorophenyl)methyl]-1H-benzimidazol-2-yl]methyl]-1-piperidinyl]ethyl]-2-pyridinemethanamine]: 0.16 mg/kg.
As to `CN1CCC(Oc2nc3ccccc3n2Cc2ccc(F)cc2)CC1` [Compound 85], in assay [1], the ED50 was determined as 0.01 mg/kg.
Consider `Fc1ccc(Cn2c(OC3CCN(CCNc4nccs4)CC3)nc3ccccc32)cc1` [Compound 355], for which, in assay [1], the ED50 stood at 0.08 mg/kg.
Regarding `Fc1ccc(Cn2c(CC3CCN(CCSc4ccccc4)CC3)nc3cccnc32)cc1` [Compound 147, 3-[(4-fluorophenyl)methyl]-2-[[1-[2-(phenylthio)ethyl]-4-piperidinyl]methyl]-3H-imidazo[4,5-b]pyridine], the ED50 in assay [1] came to 0.08 mg/kg.
On the same count and under the same terms, next, `OCCN1CCC(Cc2nc3ccccc3n2Cc2ccccc2)CC1` [Compound 112]: 0.08 mg/kg.
For `O=C(Cc1ccsc1)NCCN1CCC(Cc2nc3ccccc3n2Cc2ccc(F)cc2)CC1` [Compound 440, N-[2-[4-[[1-[(4-fluorophenyl)methyl]-1H-benzimidazol-2-yl]methyl]-1-piperidinyl]ethyl]-3-thiopheneacetamide], the ED50 in assay [1] came out at 0.02 mg/kg.
For the compound `OCCN1CCC(Oc2nc3ccccc3n2Cc2ccc(F)cc2)CC1` [Compound 105, 4-[[1-[(4-fluorophenyl)methyl]-1H-benzimidazol-2-yl]oxy]-1-piperidineethanol], the ED50 in assay [1] was 0.01 mg/kg.
For `Fc1ccc(Cn2c(CC3CCN(CCNc4cccnn4)CC3)nc3ccccc32)cc1` [Compound 500, N-[2-[4-[[1-[(4-fluorophenyl)methyl]-1H-benzimidazol-2-yl]methyl]-1-piperidinyl]ethyl]-3-pyridazinamine], in assay [1], the ED50 is 0.01 mg/kg.
Still for that read-out and setting: the value for `NC(=O)CN1CCC(Cc2nc3ccccc3n2Cc2ccc(F)cc2)CC1` [Compound 149, 4-[[1-[(4-fluorophenyl)methyl]-1H-benzimidazol-2-yl]methyl]-1-piperidineacetamide] was 0.04 mg/kg.
On to `c1ccc(Cn2c(CC3CCN(CCNc4ncccn4)CC3)nc3ccccc32)cc1` [Compound 344], for which, in assay [1], the ED50 stood at 0.02 mg/kg.
Still for that read-out and setting: next, `Fc1ccc(Cn2c(CC3CCN(CCNc4nc5ccccc5[nH]4)CC3)nc3cccnc32)cc1` [Compound 329, N-[2-[4-[[3-[(4-fluorophenyl)methyl]-3H-imidazo[4,5-b]pyridin-2-yl]methyl]-1-piperidinyl]ethyl]1H-benzimidazol-2-amine]: 0.31 mg/kg; `Fc1ccc(Cn2c(CC3CCN(CCNc4nc5ccccc5[nH]4)CC3)nc3ccccc32)cc1` [Compound 328, N-[2-[4-[[1-[(4-fluorophenyl)methyl]-1H-benzimidazol-2-yl]methyl]-1-piperidinyl]ethyl]1H-benzimidazol-2-amine]: 0.16 mg/kg.
